Results taken from US20230285346A1, “METHODS OF USING FTO INHIBITORS FOR THE TREATMENT OF PULMONARY HYPERTENSION” (Ann and Robert H. Lurie Children's Hospital of Chicago, priority 2022, published 2023).

How the values were obtained:
MCT-induced PH in rats = test: monocrotaline (MCT)-induced rat PH model; assay type: in vivo, Sprague Dawley (SD) rats
Protocol: FIGS. 15A, 15B, 15C, 15D, and 15E. […] (A) FB-23-2 chemical structure. (B) Hemodynamic measurement showing decreased RVSP in FB23-2-treated MCT rats. (C) FB23-2 treatment attenuated RV hypertrophy. (D) Representative micrographs of pentachrome staining showing a markedly thickened vessel in Vehicle-treated MCT rats whereas normalized thickness of vessel walls in FB23-2-treated rats. At 2 weeks post-MCT challenge, the rats were treated with either PBS or FB23-2 (3 mg/kg, i.p. twice a day) for 2 weeks. V=vessel, Br=Bronchiole. Scale bar, 20 μm. […] Student's t test.
FIGS. 17A, 17B, and 17C. Decreased RVSP and RV hypertrophy in Meclofenamate-treated MCT rats. (A) representative tracings of RVSP measurement. Mec=Meclofenamate. […] (C) Reduced RV hypertrophy in Meclofenamate-treated MCT rats. CTL, control rats without MCT treatment. *P<0.05; **P<0.01. One-way ANOVA.
FIGS. 18A and 18B. Inhibited pulmonary vascular remodeling in Meclofenamate-treated MCT rats. (A) Representative micrographs of pentachrome staining showing a markedly thickened vessel in PBS-treated MCT rats whereas normalized thickness of vessel walls in Meclofenamate-treated rats. At 2 weeks post-MCT challenge, the rats were treated with either PBS or Meclofenamate for 2 weeks. V=vessel, Br=Bronchiole. Scale bar, 20 μm. (B). Quantification of pulmonary artery (PA) wall thickness. CTL=control rats without MCT treatment. *P<0.05. One-way ANOVA.
FIGS. 19A and 19B. Improved right heart contractility and pulmonary arterial function in Meclofenamate-treated MCT rats. At 2 weeks post-MCT, the rats were treated with either PBS or Meclofenamate for 2 weeks and then subject to echocardiography for assessment of right heart contractility determined by RV fraction area changes (RV FAC) (A), and of pulmonary arterial function by PA acceleration time/ejection time ratio (PA AT/ET) (B). ** P<0.01. Student t test.
Inhibited Arginase expression in lung ECs of Fto^Tie2Cre mice following chronic hypoxia. To identify potential FTO targets in lung ECs, RNA was isolated from lung ECs of WT mice and Fto^Tie2Cre mice at normoxia, 3 days, and 21 days hypoxia for RNA sequencing analysis. Arg1 is one of the top 10 genes induced in hypoxic WT mice but not in hypoxic Fto^Tie2Cre mice. […] It has been shown that substrate L-Arginine levels inversely correlate to PA pressure in patients (19). […] Increased Arginase expression and activity in lung ECs leads to reduced substrate L-Arginine for nitric oxide (NO) synthesis by eNOS and thus impairs NO production (21, 22). Low NO levels affect vasotone and smooth muscle cell growth. […] FTO deficiency reduces the stability of ARG2 mRNA in human PAECs. To determine whether ARG2 (the major isoform in human ECs) is a target of FTO in human PAECs, a stability assay was carried out and the effect of FTO on the decay of ARG2 mRNA was assessed. FTO-silenced and control PAECs were treated with 5 μg/mL actinomycin D to stop the new transcriptional process. Total RNA was then isolated at 0, 3, 6 h post-actinomycin D treatment and quantified by QRT-PCR analysis. The relative ARG2 level was calculated and normalized to β-actin and the ARG2 mRNA half-life time (t1/2) was estimated according to the linear regression analysis (9). […] Increased m^6A demethylase activity and FTO expression in PAECs from IPAH patients compared to donor ECs and FTO-dependent upregulation of ARG2 expression in PAECs of IPAH patients. […] Furthermore, methylated RNA immunoprecipitation (MeRIP)-QRT-PCR analysis confirmed a marked decrease of m^6A ARG2 in IPAH ECs compared to normal ECs from unused donors (FIG. 10). • 7. SMC-specific Fto deletion inhibits hypoxia-induced PH in mice. To determine whether FTO is essential for medial thickening and muscularization of distal pulmonary vessels and development of PAH, novel tamoxifen-inducible Fto^iΔSMC mice were generated by breeding Fto-floxed mice into the genetic background of Myh11-CreER^T2 mice. […]

FTO = FTO (Homo sapiens, UniProt Q9C0B1); details: FTO versus ALKBH5; cited from earlier work
[1] = FB23-2 3 mg/kg, i.p. twice a day for 2 weeks, vs vehicle-treated MCT rats

Sequence of FTO (Q9C0B1 whole entry): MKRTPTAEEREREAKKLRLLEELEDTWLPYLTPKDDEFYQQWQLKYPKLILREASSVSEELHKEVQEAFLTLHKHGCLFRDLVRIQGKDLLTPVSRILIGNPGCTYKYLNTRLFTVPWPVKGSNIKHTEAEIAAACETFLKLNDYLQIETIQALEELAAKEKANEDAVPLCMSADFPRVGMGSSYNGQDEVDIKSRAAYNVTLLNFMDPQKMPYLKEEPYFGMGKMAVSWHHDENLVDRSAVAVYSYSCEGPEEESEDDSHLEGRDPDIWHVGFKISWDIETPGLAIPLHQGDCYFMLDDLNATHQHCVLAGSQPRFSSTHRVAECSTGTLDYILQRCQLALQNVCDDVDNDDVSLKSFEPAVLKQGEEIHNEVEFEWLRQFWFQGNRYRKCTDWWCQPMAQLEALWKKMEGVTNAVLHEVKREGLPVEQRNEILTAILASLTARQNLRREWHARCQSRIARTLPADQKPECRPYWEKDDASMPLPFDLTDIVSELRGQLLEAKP

Row | Structure (SMILES) | MCT-induced RVSP increase (MCT-induced PH in rats; FB23-2 3 mg/kg, i.p. twice a day for 2 weeks from 2 weeks post-MCT, measured 4 weeks post-MCT, vs vehicle) | RV hypertrophy determined by RV/LV+septum ratio (MCT-induced PH in rats; FB23-2 3 mg/kg, i.p. twice a day for 2 weeks from 2 weeks post-MCT, vs vehicle) | pulmonary arterial function (echocardiography, PA AT/ET) (MCT-induced PH in rats; [1]) | pulmonary vascular remodeling (vessel wall thickness, pentachrome staining) (MCT-induced PH in rats; [1]) | RVSP (MCT-induced PH in rats; Meclofenamate 10 mg/kg, p.o., twice a day for 2 weeks from 2 weeks post-MCT, vs PBS-treated MCT rats) | MCT-induced RV hypertrophy (MCT-induced PH in rats; Meclofenamate 10 mg/kg, p.o., twice a day for 2 weeks, vs PBS-treated MCT rats) | PA wall thickness (pentachrome staining; pulmonary vascular remodeling) (MCT-induced PH in rats; Meclofenamate 10 mg/kg, p.o., twice a day for 2 weeks, vs untreated MCT-rats) | right heart contractility, RV fraction area changes (RV FAC), echocardiography (MCT-induced PH in rats; Meclofenamate for 2 weeks from 2 weeks post-MCT, decrease seen in PBS-treated MCT rats) | ratio of PA acceleration time/ejection time (PA AT/ET) (MCT-induced PH in rats; Meclofenamate for 2 weeks from 2 weeks post-MCT, vs PBS-treated MCT rats) | selectivity of FTO inhibition (FTO)
1 | Cc1noc(C)c1-c1cc(Cl)c(Nc2ccccc2C(=O)NO)c(Cl)c1 [FB23-2] | markedly reduced | markedly reduced | improved pulmonary arterial function | reduced pulmonary vascular remodeling | – | – | – | – | – | –
2 | Cc1ccc(Cl)c(Nc2ccccc2C(=O)O)c1Cl [Meclofenamate sodium] | – | – | – | – | drastically decreased | markedly reduced | markedly reduced | reversed | marked increase | selective over ALKBH5
